Format in all cases: functional
One test has as its system MCF7. In words: Anticancer activity against human MCF7 cells assessed as growth at 100 uM after 48 hrs by SRB protein assay relative to control. To be noted: MCF7, 48 h, read-out: Activity. A general note: The SRB assay estimates cell density from bound dye.
The subject of a further test is NCI-H460. In words: Anticancer activity against human NCL-H460 cells assessed as growth at 100 uM after 48 hrs by SRB protein assay relative to control. Conditions: NCI-H460, 48 h, read-out: Activity.
For the next test, the system named is SF-268. The test can be described thus: Anticancer activity against human SF268 cells assessed as growth at 100 uM after 48 hrs by SRB protein assay relative to control. Conditions: SF-268, 48 h, read-out: Activity.

Drawing on ChEMBL document CHEMBL1143809, “New bis-N9-(methylphenylmethyl)purine derivatives: synthesis and antitumor activity” (2007), this text covers growth for eight compounds.

Take `Clc1ncnc2c1ncn2Cc1ccccc1Cn1cnc2c(Cl)ncnc21`: the growth at 100 µM was 78% with MCF7, 58% in the test on NCI-H460 and 78% in the test with SF-268.
As for `Clc1ncnc2c1ncn2Cc1cccc(Cn2cnc3c(Cl)ncnc32)c1`, the growth at 100 µM in the test on MCF7 amounted to 77%; in the test on NCI-H460, 65%; in the test with SF-268, 90%.
For `Nc1ncnc2c1ncn2Cc1cccc(Cn2cnc3c(N)ncnc32)c1` the same measures were 109%, 96% and 108%.
For the compound `Clc1ncnc2c1ncn2Cc1ccc(Cn2cnc3c(Cl)ncnc32)cc1`, the figures for the growth at 100 µM with MCF7, in the test with NCI-H460 and in the test with SF-268 were 101%, 95% and 86%, respectively.
On the same counts, the results for `Nc1ncnc2c1ncn2Cc1ccc(Cn2cnc3c(N)ncnc32)cc1` are 112%, 111% and 96%.
For `Clc1ncnc2c1ncn2Cc1ccc(-c2ccc(Cn3cnc4c(Cl)ncnc43)cc2)cc1` the same measures were 67%, 45% and 95%.
In the case of `Nc1ncnc2c1ncn2Cc1ccc(-c2ccc(Cn3cnc4c(N)ncnc43)cc2)cc1`, the growth at 100 µM in the test on MCF7 worked out at 86%; in the test with NCI-H460, 98%; in the test with SF-268 it was 50%.
Regarding `Nc1ncnc2c1ncn2Cc1ccccc1Cn1cnc2c(N)ncnc21`, the growth at 100 µM in the test on MCF7 was 99%; in the test on NCI-H460 it was 84%; in the test on SF-268 it was 99%.
